Experimental data from patent US7186701B2, “Dehydrating agent and method for dehydrating moist article using the agent and dehydrated article obtained by the method” (Kabushiki Kaisha Hayashibara Seibutsu Kagaku Kenkyujo, priority 2001, dated 2007).

How the values were obtained:
[1] = test system: Eubacterium aerofaciens ATCC 25986; assay: Assimilation test; assay type: cell-based; conditions: 0.5% saccharide in PYF medium, 37° C., four days, anaerobic
[2] = test system: Bifidobacterium adolescentis JCM 1275; assay: Assimilation test; assay type: cell-based; conditions: 0.5% saccharide in PYF medium, 37° C., four days, anaerobic
[3] = test system: Bacteroides vulgatus JCM 5826; assay: Assimilation test; assay type: cell-based; conditions: 0.5% saccharide in PYF medium, 37° C., four days, anaerobic
[4] = test system: Clostridium perfringens JCM 3816; assay type: cell-based; conditions: 0.5% saccharide in PYF medium, 37° C., four days, anaerobic
[5] = test system: α-isomaltosylglucosaccharide-forming enzyme; assay: Specificity of transfer acceptor (C9 enzyme); assay type: biochemical, Bacillus globisporus C9 strain; conditions: acceptor 1.6%, PINE-DEX #100 donor 4%, one unit/g donor, 30° C., pH 6.0, 24 hours
Description: (§1) A variety of saccharides were tested whether they could be used as transferring-acceptors for the α-isomaltosylglucosaccharide-forming enzyme. A solution of D-glucose, D-xylose, L-xylose, D-galactose, D-fructose, D-mannose, D-arabinose, D-fucose, L-sorbose, L-rhamnose, methyl-α-glucopyranoside, methyl-β-glucopyranoside, N-acetyl-glucosamine, sorbitol, α,α-trehalose, isomaltose, isomaltotriose, cellobiose, gentibiose, maltitol, lactose, sucrose, α-cyclodextrin, β-cyclodextrin, or γ-cyclodextrin was prepared. […] The reaction mixtures after the enzymatic reactions were analyzed on gas chromatography (abbreviated as “GLC” hereinafter) for monosaccharides and disaccharides as acceptors, and on HPLC for trisaccharides and higher saccharides as acceptors to confirm whether these saccharides could be used as their transfer acceptors. In the case of performing GLC, the following apparatuses and conditions were used: […] In the case of HPLC analysis, the apparatuses and conditions used were: HPLC apparatus, “CCPD” commercialized by Tosoh Corporation, Tokyo, Japan; column, “ODS-AQ-303” commercialized by YMC Co., Ltd., Tokyo, Japan; eluent, water at a flow rate of 0.5 ml/min; and detection, a differential refractometer.

[6] = test system: Lactobacillus acidophilus JCM 1132; assay: Assimilation test; assay type: cell-based; conditions: 0.5% saccharide in PYF medium, 37° C., four days, anaerobic
[7] = test system: Escherichia coli IFO 3301; assay: Assimilation test; assay type: cell-based; conditions: 0.5% saccharide in PYF medium, 37° C., four days, anaerobic
[8] = test system: α-isomaltosylglucosaccharide-forming enzyme; assay: Specificity of transfer acceptor (C11 enzyme); assay type: biochemical, Bacillus globisporus C11 strain; conditions: acceptor 1.6%, PINE-DEX #100 donor 4%, one unit/g donor, 30° C., pH 6.0, 24 hours
Description: as §1

[9] = test system: Small intestinal mucosal enzyme; assay: Digestion test in vitro, small intestinal mucosal enzyme
salivary amylase = target: T1, salivary amylase (Homo sapiens, UniProt P0DUB6); assay: Digestion test in vitro, salivary amylase
T1 sequence (P0DUB6 16-511): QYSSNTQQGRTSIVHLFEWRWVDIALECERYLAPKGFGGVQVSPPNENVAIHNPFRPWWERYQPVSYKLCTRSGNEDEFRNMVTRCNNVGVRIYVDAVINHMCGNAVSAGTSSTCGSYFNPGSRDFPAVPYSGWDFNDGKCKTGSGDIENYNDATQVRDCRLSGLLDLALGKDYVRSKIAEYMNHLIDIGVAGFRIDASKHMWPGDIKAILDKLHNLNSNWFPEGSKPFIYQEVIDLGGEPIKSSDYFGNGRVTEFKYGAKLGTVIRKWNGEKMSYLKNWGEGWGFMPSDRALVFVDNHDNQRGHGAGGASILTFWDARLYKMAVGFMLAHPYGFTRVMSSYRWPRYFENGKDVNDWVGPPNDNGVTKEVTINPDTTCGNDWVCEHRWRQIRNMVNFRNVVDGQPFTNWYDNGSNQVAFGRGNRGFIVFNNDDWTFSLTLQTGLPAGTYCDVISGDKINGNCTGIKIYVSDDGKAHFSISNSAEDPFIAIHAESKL

[10] = Digestion test in vitro, synthetic gastric juice
amylopsin = target: T2, amylopsin (Homo sapiens, UniProt P04746); assay: Digestion test in vitro, amylopsin
T2 sequence (P04746 16-511): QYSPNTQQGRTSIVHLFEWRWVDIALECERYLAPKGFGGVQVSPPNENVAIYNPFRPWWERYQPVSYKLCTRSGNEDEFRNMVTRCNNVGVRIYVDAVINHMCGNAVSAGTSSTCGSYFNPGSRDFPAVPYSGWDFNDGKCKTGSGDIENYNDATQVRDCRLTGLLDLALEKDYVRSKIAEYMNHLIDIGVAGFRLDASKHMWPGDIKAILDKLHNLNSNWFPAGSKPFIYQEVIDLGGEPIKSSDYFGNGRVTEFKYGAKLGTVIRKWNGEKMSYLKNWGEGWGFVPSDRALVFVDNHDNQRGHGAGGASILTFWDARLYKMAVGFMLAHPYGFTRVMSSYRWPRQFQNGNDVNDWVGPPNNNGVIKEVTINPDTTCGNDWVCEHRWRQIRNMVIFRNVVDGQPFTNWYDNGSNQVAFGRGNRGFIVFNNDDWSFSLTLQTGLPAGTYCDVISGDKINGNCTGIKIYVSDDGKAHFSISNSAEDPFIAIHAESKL

[11] = test system: α-isomaltosylglucosaccharide-forming enzyme; assay: Influence of metal ions on α-isomaltosylglucosaccharide-forming enzyme activity (C9 strain); assay type: biochemical, Bacillus globisporus C9 strain; conditions: in the presence of 1 mM metal salt; None = 100
Description: The activities of these enzymes were assayed as follows: The activity of α-isomaltosylglucosaccharide-forming enzyme was assayed by dissolving maltotriose in 100 mM acetate buffer (pH 6.0) to give a concentration of 2% (w/v) for a substrate solution, adding 0.5 ml of an enzyme solution to 0.5 ml of the substrate solution, enzymatically reacting the mixture solution at 35° C. for 60 min, boiling the reaction mixture for 10 min to suspend the enzymatic reaction, and quantifying maltose, among the isomaltosyl maltose and maltose formed in the reaction mixture, on HPLC as described in Experiment 1. One unit activity of the α-isomaltosylglucosaccharide-forming enzyme was defined as the enzyme amount that forms one micromole of maltose per minute under the above enzymatic reaction conditions.
The influence of metal ions on the activity of α-isomaltosylglucosaccharide-forming enzyme was examined in the presence of 1 mM of any of metal salts according to the assay for the enzyme activity.

SMILES | Assimilability [1] | Assimilability [2] | Assimilability [3] | Assimilability [4] | Product of saccharide transferring reaction, Enzyme of C9 strain [5] | Assimilability [6] | Assimilability [7] | Product of saccharide transferring reaction, Enzyme of C11 strain [8] | Decomposition percentage (%) by digestive enzyme [9] | Decomposition percentage (%) by digestive enzyme (salivary amylase) | Decomposition percentage (%) by digestive enzyme [10] | Decomposition percentage (%) by digestive enzyme (amylopsin) | Relative activity (%) [11]
O=C[C@H](O)[C@@H](O)[C@H](O)[C@H](O)CO [D-Glucose, D-glucose, reference compound] | + (judged as positive (+) when the post culture had a pH of below 6.0) | + (judged as positive (+) when the post culture had a pH of below 6.0) | + (judged as positive (+) when the post culture had a pH of below 6.0) | + (judged as positive (+) when the post culture had a pH of below 6.0) | + (a saccharide-transferred product was detected in an amount of at least one percent but less than ten percent through transferring reaction to acceptor) | + (judged as positive (+) when the post culture had a pH of below 6.0) | + (judged as positive (+) when the post culture had a pH of below 6.0) | + (a saccharide-transferred product was detected in an amount of at least one percent but less than ten percent through transferring reaction to acceptor) |  |  |  |  | 
OC[C@@H](O)[C@@H](O[C@H]1O[C@H](CO)[C@@H](O)[C@H](O)[C@H]1O)[C@H](O)[C@@H](O)CO [Maltitol, maltitol] |  |  |  |  | ++ (a saccharide-transferred product was detected in an amount of at least ten percent through transferring reaction to acceptor) |  |  | ++ (a saccharide-transferred product was detected in an amount of at least ten percent through transferring reaction to acceptor) | 4.0% | 0.0% | 0.0% | 0.0% | 
[Mg+2] [Mg^2+] |  |  |  |  |  |  |  |  |  |  |  |  | 100%
